Laboratory results reported in patent US12084437B2, “Halo-substituted piperidines as orexin receptor modulators” (AstraZeneca AB, priority 2016, dated 2024).
Several values for one entry are separate records, joined by “and”; a condition that tells them apart may be missing. Identical values can stand only once.

Key:
OX1 = biological target: T1, OX1 (Homo sapiens, UniProt O43613); assay: Orexin receptor cell-based functional assay, [Ca2+]i by FLIPR, CHO-OX1 cells; details: FLIPR calcium, antagonism of EC90 of [OX], read-out: OXI, IC50
T1 construct: expressed in transfected cells; host or cells: CHO (CHO-OX1)
T1 sequence (O43613 1-425): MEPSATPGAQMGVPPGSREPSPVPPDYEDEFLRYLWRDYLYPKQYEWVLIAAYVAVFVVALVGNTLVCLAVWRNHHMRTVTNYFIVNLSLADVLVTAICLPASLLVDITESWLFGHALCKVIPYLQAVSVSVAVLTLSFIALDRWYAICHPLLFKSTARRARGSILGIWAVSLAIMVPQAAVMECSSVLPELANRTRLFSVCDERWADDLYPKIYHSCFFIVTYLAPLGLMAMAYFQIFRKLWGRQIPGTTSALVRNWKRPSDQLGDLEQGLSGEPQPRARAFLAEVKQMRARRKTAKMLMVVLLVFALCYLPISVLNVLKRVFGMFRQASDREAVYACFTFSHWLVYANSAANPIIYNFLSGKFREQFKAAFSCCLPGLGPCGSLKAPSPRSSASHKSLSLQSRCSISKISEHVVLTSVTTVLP
Description: (§1) Measurement of [Ca^2+]i using a FLIPR: CHO-OX1 or CHO-OX2 cells were seeded into black-walled clear-base 384-well plates (Corning, catalog #3712) at a density of 20,000 cells per well in F12-K medium supplemented with 10% FBS and then incubated in a 5% CO2, 37° C. incubator overnight to reach 90% confluency. The cells were incubated with equal volume of calcium6 loading buffer (Molecular Devices, Inc.) containing 2.5 mM probenecid at 37° C. for 2 h, followed by test compounds (dose-range 0.1 nM-10 μM) for another 30 min. The plates were then placed into a FLIPR (Molecular Devices, Inc.) to monitor fluorescence (λ excitation 488 nm, λ emission 540 nm) before and after the addition of EC90 of [OX].

OX2 = biological target: T2, OX2 (Homo sapiens, UniProt O43614); assay: Orexin receptor cell-based functional assay, [Ca2+]i by FLIPR, CHO-OX2 cells; details: FLIPR calcium, antagonism of EC90 of [OX]
T2 construct: expressed in transfected cells; host or cells: CHO (CHO-OX2)
T2 sequence (O43614 1-444): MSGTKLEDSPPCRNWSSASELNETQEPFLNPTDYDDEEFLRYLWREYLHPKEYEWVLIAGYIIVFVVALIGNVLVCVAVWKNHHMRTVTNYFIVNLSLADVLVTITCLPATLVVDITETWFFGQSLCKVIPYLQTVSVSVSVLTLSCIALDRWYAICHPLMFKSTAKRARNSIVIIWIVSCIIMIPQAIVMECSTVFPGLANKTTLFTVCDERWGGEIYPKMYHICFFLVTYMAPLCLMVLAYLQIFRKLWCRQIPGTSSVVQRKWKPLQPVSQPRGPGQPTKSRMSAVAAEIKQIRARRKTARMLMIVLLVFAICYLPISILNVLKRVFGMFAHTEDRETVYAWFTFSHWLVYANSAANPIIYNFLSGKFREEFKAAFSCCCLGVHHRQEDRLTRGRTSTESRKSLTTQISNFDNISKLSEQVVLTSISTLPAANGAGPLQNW
Description: as §1, with “[OX]. Results for exemplary compounds of Formulae (I), (Ia), (Ib), (II), (IIa), (III), (IIIa), (IV), (IVa), (V), or (Va) are shown in Table 3.” for “[OX].”

SMILES	IC50 (OX1)	IC50 (OX2) [nM]
Cc1nc(C(=O)N2CC(F)(F)C[C@@H](C)[C@H]2CNc2ncc(C(F)(F)F)cn2)c(-c2cccc(F)c2)s1 [Compound 67]	5 nM	1110
Cc1nc(C(=O)N2CC(F)(F)C[C@@H](C)[C@H]2CNc2ncc(C(F)(F)F)cn2)c(-c2ccc(F)cc2)s1 [Compound 68, ((2S,3R)-5,5-difluoro-3-methyl-2-(((5-(trifluoromethyl)pyrimidin-2-yl)amino)methyl)piperidin-1-yl)(5-(4-fluorophenyl)-2-methylthiazol-4-yl)methanone]	8 nM	> 5000
Cc1nc(C(=O)N2CC(F)(F)C[C@@H](C)[C@H]2CNc2ncc(Cl)cn2)c(-c2ccc(F)cc2)s1 [Compound 69]	9 nM	> 5000
Cc1nc(C(=O)N2CC(F)(F)C[C@@H](C)[C@H]2CNc2ncc(C(F)(F)F)cn2)c(-c2ccccn2)s1 [Compound 70]	5 nM	> 5000
Cc1nc(C(=O)N2CC(F)(F)C[C@@H](C)[C@H]2CNc2ncc(C(F)(F)F)cn2)c(-c2ccc(F)cn2)s1 [Compound 72]	237 nM	> 5000
Cc1ccnc(-c2sc(C)nc2C(=O)N2CC(F)(F)C[C@@H](C)[C@H]2CNc2ncc(C(F)(F)F)cn2)c1 [Compound 74]	6 nM	> 5000
Cc1nc(C(=O)N2CC(F)(F)C[C@@H](C)[C@H]2CNc2ncc(C(F)(F)F)cn2)c(-c2ncccc2C)s1 [Compound 75]	12 nM	> 5000
Cc1ccc(-c2sc(C)nc2C(=O)N2CC(F)(F)C[C@@H](C)[C@H]2CNc2ncc(C(F)(F)F)cn2)nc1 [Compound 76]	10 nM	> 5000
Cc1cccc(-c2sc(C)nc2C(=O)N2CC(F)(F)C[C@@H](C)[C@H]2CNc2ncc(C(F)(F)F)cn2)n1 [Compound 77]	4 nM	> 5000
COc1ccc(-c2sc(C)nc2C(=O)N2CC(F)(F)C[C@@H](C)[C@H]2CNc2ncc(C(F)(F)F)cn2)nc1 [Compound 78]	2 nM	> 5000
C[C@@H]1CC(F)(F)CN(C(=O)c2nn(C)nc2-c2ccc(F)cc2)[C@@H]1CNc1ncc(C(F)(F)F)cn1 [Compound 81]	102 nM	> 5000
C[C@@H]1CC(F)(F)CN(C(=O)c2nn(C)nc2-c2ccccn2)[C@@H]1CNc1ncc(C(F)(F)F)cn1 [Compound 83]	56 nM	> 5000
Cc1nc(C(=O)N2CC(F)(F)C[C@@H](C)[C@H]2CNc2ncc(C(F)(F)F)cn2)c(-c2ccc(F)cc2)o1 [Compound 84]	130 nM	> 5000
Cc1nc(C(=O)N2CC(F)(F)C[C@@H](C)[C@H]2CNc2ncc(C(F)(F)F)cn2)c(-c2ccccn2)o1 [Compound 87]	> 1000 nM	> 5000
Cc1cc(C(=O)N2CC(F)(F)C[C@@H](C)[C@H]2CNc2ncc(C(F)(F)F)cn2)c(-c2ccccn2)s1 [Compound 91]	7 nM	> 5000
Cc1cc(C(=O)N2CC(F)(F)C[C@@H](C)[C@H]2CNc2ncc(Cl)cn2)c(-c2ccccn2)s1 [Compound 92]	24 nM	> 5000
C[C@@H]1CC(F)(F)CN(C(=O)c2cnn(C)c2-c2ccccn2)[C@@H]1CNc1ncc(C(F)(F)F)cn1 [Compound 95]	> 1000 nM	> 5000
C[C@@H]1CC(F)(F)CN(C(=O)c2cnn(C)c2-c2ccccn2)[C@@H]1CNc1ncc(Cl)cn1 [Compound 96]	> 1000 nM	> 5000

The remaining lines, values ahead:

IC50 (OX1)	IC50 (OX2) [nM]	SMILES
2 nM	> 5000	Cc1nc(C(=O)N2CC(F)(F)C[C@@H](C)[C@H]2CNc2ncc(C(F)(F)F)cn2)c(-c2ccccc2)s1 [Compound 65]
1 nM	2080	Cc1nc(C(=O)N2CC(F)(F)C[C@@H](C)[C@H]2CNc2ncc(C(F)(F)F)cn2)c(-c2ccccc2F)s1 [Compound 66]
45 nM	> 5000	C[C@@H]1CC(F)(F)CN(C(=O)c2nn(C)nc2-c2ccccc2)[C@@H]1CNc1ncc(C(F)(F)F)cn1 [Compound 82]
12 nM and 30 nM	> 5000	Cc1nc(C(=O)N2CC(F)(F)C[C@@H](C)[C@H]2CNc2ncc(C(F)(F)F)cn2)c(-c2ccccc2)o1 [Compound 85]
23 nM	> 5000	Cc1ccc(-c2cn(C)nc2C(=O)N2CC(F)(F)C[C@@H](C)[C@H]2CNc2ncc(C(F)(F)F)cn2)cn1 [Compound 89]
206 nM	> 5000	C[C@@H]1CC(F)(F)CN(C(=O)c2nn(C)cc2-c2cccnc2)[C@@H]1CNc1ncc(C(F)(F)F)cn1 [Compound 90]
156 nM	> 5000	C[C@@H]1CC(F)(F)CN(C(=O)c2cn(C)nc2-c2ccccn2)[C@@H]1CNc1ncc(C(F)(F)F)cn1 [Compound 93]
12 nM	> 5000	C[C@@H]1CC(F)(F)CN(C(=O)c2nn(C)cc2-c2ncccn2)[C@@H]1CNc1ncc(C(F)(F)F)cn1 [Compound 97, ((2S,3R)-5,5-difluoro-3-methyl-2-(((5-(trifluoromethyl)pyrimidin-2-yl)amino)methyl)piperidin-1-yl)(1-methyl-4-(pyrimidin-2-yl)-1H-pyrazol-3-yl)methanone]
2 nM	> 5000	C[C@@H]1CC(F)(F)CN(C(=O)c2nn(C)cc2-c2ccccc2)[C@@H]1CNc1cnc(C(F)(F)F)cn1 [Compound 120, ((2S,3R)-5,5-difluoro-3-methyl-2-(((5-(trifluoromethyl)pyrazin-2-yl)amino)methyl)piperidin-1-yl)(1-methyl-4-phenyl-1H-pyrazol-3-yl)methanone]
5 nM	> 5000	C[C@@H]1CC(F)(F)CN(C(=O)c2nn(C)cc2-c2ccc(F)cc2)[C@@H]1CNc1cnc(C(F)(F)F)cn1 [Compound 121]
5 nM	> 5000	Cc1ccc(-c2cn(C)nc2C(=O)N2CC(F)(F)C[C@@H](C)[C@H]2CNc2cnc(C(F)(F)F)cn2)cc1 [Compound 122]
2 nM	> 5000	Cc1cccc(-c2cn(C)nc2C(=O)N2CC(F)(F)C[C@@H](C)[C@H]2CNc2cnc(C(F)(F)F)cn2)c1 [Compound 123]
4 nM	1000	COc1cccc(-c2cn(C)nc2C(=O)N2CC(F)(F)C[C@@H](C)[C@H]2CNc2cnc(C(F)(F)F)cn2)c1 [Compound 124]
4 nM and 2 nM	> 5000	COc1ccc(-c2cn(C)nc2C(=O)N2CC(F)(F)C[C@@H](C)[C@H]2CNc2cnc(C(F)(F)F)cn2)cc1 [Compound 125]
6 nM	> 5000	C[C@@H]1CC(F)(F)CN(C(=O)c2nn(C)cc2-c2ccccn2)[C@@H]1CNc1cnc(C(F)(F)F)cn1 [Compound 130]
7 nM	> 5000	Cc1cccc(-c2cn(C)nc2C(=O)N2CC(F)(F)C[C@@H](C)[C@H]2CNc2cnc(C(F)(F)F)cn2)n1 [Compound 132]
11 nM	> 5000	Cc1ccc(-c2cn(C)nc2C(=O)N2CC(F)(F)C[C@@H](C)[C@H]2CNc2cnc(C(F)(F)F)cn2)nc1 [Compound 133]
4 nM	> 5000	Cc1ccnc(-c2cn(C)nc2C(=O)N2CC(F)(F)C[C@@H](C)[C@H]2CNc2cnc(C(F)(F)F)cn2)c1 [Compound 134]
19 nM	> 5000	COc1ccc(-c2cn(C)nc2C(=O)N2CC(F)(F)C[C@@H](C)[C@H]2CNc2cnc(C(F)(F)F)cn2)nc1 [Compound 135]
